Laboratory results taken from ChEMBL document CHEMBL1149541, “Potent macrocyclic antagonists to the motilin receptor presenting novel unnatural amino acids” (Bioorg Med Chem Lett, 2007).

Assays:
[1] = target: T1, Motilin receptor (Homo sapiens, UniProt O43193); assay: Displacement of [125I]motilin from human motilin receptor expressed in CHO cells; assay type: cell-based
[2] = target: T1, Motilin receptor; assay: Antagonist activity against human motilin receptor in aequoscreen cells assessed as inhibition of motilin induced calcium release by aequorin assay; assay type: functional, cell-based

T1 sequence (O43193 whole entry): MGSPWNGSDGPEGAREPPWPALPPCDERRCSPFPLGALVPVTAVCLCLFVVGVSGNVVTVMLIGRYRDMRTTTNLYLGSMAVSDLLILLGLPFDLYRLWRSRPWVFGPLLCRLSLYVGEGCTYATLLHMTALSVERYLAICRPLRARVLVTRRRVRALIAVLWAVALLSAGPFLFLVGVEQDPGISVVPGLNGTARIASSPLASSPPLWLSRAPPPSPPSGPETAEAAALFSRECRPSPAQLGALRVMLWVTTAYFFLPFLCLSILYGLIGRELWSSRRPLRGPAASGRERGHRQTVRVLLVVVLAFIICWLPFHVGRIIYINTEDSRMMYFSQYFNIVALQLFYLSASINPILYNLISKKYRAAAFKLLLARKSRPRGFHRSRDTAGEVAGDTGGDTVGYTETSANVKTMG

SMILES | Ki [1] | IC50 [2]
CC(C)[C@H]1NC(=O)[C@@H](Cc2cccc(C(F)(F)F)c2)NCCOc2ccccc2CCCNC(=O)[C@H](CNc2ncccn2)NC1=O | 20 nM | –
CC(C)[C@H]1NC(=O)[C@@H](Cc2ccc(Cl)cc2)NCCOc2ccccc2CCCNC(=O)[C@H](CN=C(N)N)NC1=O | 6 nM | –
CC(C)[C@H]1NC(=O)[C@@H](Cc2ccc(O)cc2)NCCOc2ccccc2CCCNC(=O)[C@H](CCN)NC1=O | 342 nM | –
CC(C)[C@H]1NC(=O)[C@@H](Cc2ccc(Cl)cc2)NCCOc2ccccc2CCCNC(=O)[C@H](CNC(N)=O)NC1=O | 543 nM | –
CC(C)NC[C@@H]1NC(=O)[C@@H](C(C)C)NC(=O)[C@@H](Cc2ccc(O)cc2)NCCOc2ccccc2CCCNC1=O | 376 nM | –
CC(=O)NC[C@@H]1NC(=O)[C@@H](C(C)C)NC(=O)[C@@H](Cc2ccc(O)cc2)NCCOc2ccccc2CCCNC1=O | 1950 nM | –
CNC[C@@H]1NC(=O)[C@@H](C(C)C)NC(=O)[C@@H](Cc2ccc(Cl)cc2)NCCOc2ccccc2CCCNC1=O | 31 nM | 33 nM
CC(C)[C@H]1NC(=O)[C@@H](Cc2ccc(Cl)cc2)NCCOc2ccccc2CCCNC(=O)[C@H](CN(C)C)NC1=O | 16 nM | –
CNC[C@@H]1NC(=O)[C@@H](C(C)C)NC(=O)[C@@H](Cc2cccc(C(F)(F)F)c2)NCCOc2ccccc2CCCNC1=O | 6 nM | 3 nM
CC(C)[C@H]1NC(=O)[C@@H](Cc2cccc(F)c2)NCCOc2ccccc2CCCNC(=O)[C@H](Cc2cscn2)NC1=O | 116 nM | –
CC(C)[C@H]1NC(=O)[C@@H](Cc2cccc(Cl)c2)NCCOc2ccccc2CCCNC(=O)[C@H](CCC(=N)N)NC1=O | 27 nM | –
Cc1cnnn1C[C@@H]1NC(=O)[C@@H](C(C)C)NC(=O)[C@@H](Cc2cccc(C(F)(F)F)c2)NCCOc2ccccc2CCCNC1=O | 17 nM | –
CC(C)[C@H]1NC(=O)[C@@H](Cc2cccc(C(F)(F)F)c2)NCCOc2ccccc2CCCNC(=O)[C@H](CN)NC1=O | 15 nM | 8 nM
CC(C)[C@H]1NC(=O)[C@@H](Cc2cccc(Cl)c2)NCCOc2ccccc2CCCNC(=O)[C@H](CNC2=NCCCN2)NC1=O | 87 nM | –
CC(C)[C@H]1NC(=O)[C@@H](Cc2ccc(Cl)cc2)NCCOc2ccccc2CCCNC(=O)[C@H](CN)NC1=O | 60 nM | –
CC(C)[C@H]1NC(=O)[C@@H](Cc2ccc(O)cc2)NCCOc2ccccc2/C=C/CNC(=O)[C@H](CCCN)NC1=O | 889 nM | –
CC(C)[C@H]1NC(=O)[C@@H](Cc2cccc(Cl)c2)NCCOc2ccccc2CCCNC(=O)[C@H](CN=C(N)N)NC1=O | 57 nM | –
Cc1nnnn1C[C@@H]1NC(=O)[C@@H](C(C)C)NC(=O)[C@@H](Cc2cccc(C(F)(F)F)c2)NCCOc2ccccc2CCCNC1=O | 21 nM | –
CC(C)[C@H]1NC(=O)[C@@H](Cc2cccc(Cl)c2)NCCOc2ccccc2CCCNC(=O)[C@H](Cn2cccn2)NC1=O | 18 nM | 56 nM
CC(C)[C@H]1NC(=O)[C@@H](Cc2ccc(O)cc2)NCCOc2ccccc2CCCNC(=O)[C@H](CN)NC1=O | 171 nM | –
CC(C)[C@H]1NC(=O)[C@@H](Cc2cccc(C(F)(F)F)c2)NCCOc2ccccc2CCCNC(=O)[C@H](CN2CCCC2)NC1=O | 4.6 nM | 2 nM
CC(C)[C@H]1NC(=O)[C@@H](Cc2cccc(Cl)c2)NCCOc2ccccc2CCCNC(=O)[C@H](Cn2ccnc2)NC1=O | 62 nM | –
CC(C)[C@H]1NC(=O)[C@@H](Cc2cccc(Cl)c2)NCCOc2ccccc2CCCNC(=O)[C@H](CN)NC1=O | 64 nM | –
CC(C)[C@H]1NC(=O)[C@@H](Cc2cccc(Cl)c2)NCCOc2ccccc2CCCNC(=O)[C@H](CNc2nccs2)NC1=O | 41 nM | –
CC(C)[C@H]1NC(=O)[C@@H](Cc2cccc(C(F)(F)F)c2)NCCOc2ccccc2CCCNC(=O)[C@H](CNC(=N)N)NC1=O | 6 nM | 28 nM
CC(C)[C@H]1NC(=O)[C@@H](Cc2cccc(Cl)c2)NCCOc2ccccc2CCCNC(=O)[C@H](CN(C)C)NC1=O | 27 nM | 95 nM
CC(C)[C@H]1NC(=O)[C@@H](Cc2cccc(Cl)c2)NCCOc2ccccc2CCCNC(=O)[C@H](CN=C2NCCN2)NC1=O | 51 nM | –
Cc1nnn(C[C@@H]2NC(=O)[C@@H](C(C)C)NC(=O)[C@@H](Cc3cccc(C(F)(F)F)c3)NCCOc3ccccc3CCCNC2=O)c1C | 23 nM | –
CC(C)[C@H]1NC(=O)[C@@H](Cc2cccc(Cl)c2)NCCOc2ccccc2CCCNC(=O)[C@H](CN/C(N)=N/C#N)NC1=O | 100 nM | –
CC(C)[C@H]1NC(=O)[C@@H](Cc2cccc(Cl)c2)NCCOc2ccccc2CCCNC(=O)[C@H](CCN=C(N)N)NC1=O | 33 nM | –
